Results on one molecule are retold here after BindingDB's records for doi:10.1016/j.bmcl.2007.03.076 (Tanabe Research Laboratories Usa, 2007).

For the test, the target named is T1, Oxysterols receptor LXR-beta (Homo sapiens, UniProt P55055).
T1 sequence (P55055 whole entry): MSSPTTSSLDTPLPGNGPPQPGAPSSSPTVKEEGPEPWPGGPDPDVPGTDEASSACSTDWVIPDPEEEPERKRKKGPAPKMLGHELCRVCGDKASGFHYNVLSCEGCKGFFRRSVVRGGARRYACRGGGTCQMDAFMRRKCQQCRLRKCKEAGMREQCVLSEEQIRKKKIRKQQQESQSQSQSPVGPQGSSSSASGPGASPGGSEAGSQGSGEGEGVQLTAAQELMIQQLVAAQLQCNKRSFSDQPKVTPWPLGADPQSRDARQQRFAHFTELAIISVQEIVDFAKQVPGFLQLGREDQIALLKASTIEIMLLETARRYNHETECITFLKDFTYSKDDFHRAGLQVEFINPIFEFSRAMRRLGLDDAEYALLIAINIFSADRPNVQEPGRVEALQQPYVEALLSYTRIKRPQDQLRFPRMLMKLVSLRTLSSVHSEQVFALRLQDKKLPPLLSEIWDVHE
Briefly: HTRF Cofactor Peptide Recruitment Assay. The conditions noted are these: pH 7.5; 22 °C. As to the method:
Polyhistidine-tagged human LXR ligand-binding domain was mixed with the test compound, biotin-SRC1 peptide, streptavidin-allophycocyanin, and europium labeled anti-polyhistidine antibody in reaction buffer, and the mixture was incubated in a 384-well assay plate format. Time-resolved fluorescence was measured at 615 and 665 nm on a LJL Analyst plate reader. The ratio of 665/615 was used to calculate EC50 values of test compounds.

As for `CC(C)(C)OC(=O)n1c(-c2ccc3c(c2)CC(NS(=O)(=O)c2ccccc2)C3)cc2ccccc21` (stereo unspecified) [tert-butyl 2-(2-benzenesulfonamido-2,3-dihydro-1H-inden-5-yl)-1H-indole-1-carboxylate], a half-maximal response (EC50) required 210 nM.
